From patent US20230234942A1, “COMPOUNDS FOR TREATING HUNTINGTON'S DISEASE” (PTC Therapeutics, Inc., priority 2020, published 2023)
pIC50: −log10 of the molar value.

System: Endogenous Huntingtin Protein
Test: Endogenous Huntingtin Protein Assay (ELISA-based MSD electrochemiluminescence)
Type: cell-based
Description: Compounds of Formula (I) were tested using the Meso Scale Discovery (MSD) Assay provided in International Application No. PCT/US2016/066042, filed on Dec. 11, 2016 and claiming priority to U.S. Provisional Application 62/265,652 filed on Dec. 10, 2015, the entire contents of which are incorporated herein by reference.
The Endogenous Huntingtin Protein assay used in Biological Example 1 was developed using the ELISA-based MSD electrochemiluminescence assay platform.
Meso Scale Discovery (MSD) 96-well or 384-well plates were coated overnight at 4° C. with MW1 (expanded polyglutamine) or MAB2166 monoclonal antibody (for capture) at a concentration of 1 μg/mL in PBS (30 μL per well). Plates were then washed three times with 300 μL wash buffer (0.05% Tween-20 in PBS) and blocked (100 μL blocking buffer; 5% BSA in PBS) for 4-5 hours at room temperature with rotational shaking and then washed three times with wash buffer.
Samples (25 μL) were transferred to the antibody-coated MSD plate and incubated overnight at 4° C. After removal of the lysates, the plate was washed three times with wash buffer, and 25 μL of #56565 (Cell signaling; rabbit monoclonal) secondary antibody (diluted to 0.25 μg/mL in 0.05% Tween-20 in blocking buffer) was added to each well and incubated with shaking for 1 Hour at room temperature. Following incubation with the secondary antibody, the wells were rinsed with wash buffer after which 25 μL of goat anti-rabbit SULFO TAG secondary detection antibody (required aspect of the MSD system) (diluted to 0.25 μg/mL in 0.05% Tween-20 in blocking buffer) was added to each well and incubated with shaking for 1 hour at room temperature. After rinsing three times with wash buffer, 150 μL of read buffer T with surfactant (MSD) were added to each empty well, and the plate was imaged on a SI 6000 imager (MSD) according to manufacturers' instructions provided for 96- or 384-well plates.

[1] = Table 2, MSD plates coated with MW1 (expanded polyglutamine) or MAB2166 capture antibody, "inactive" = result above the detection limit of the assay

Structure (SMILES)	pIC50 [1]	also measured
CC(C)[C@H]1CN(c2ncc(-c3ncc(-c4cc(F)c5nn(C)cc5c4)cc3O)nn2)CCN1 [Cpd 157, 5-(7-fluoro-2-methyl-2H-indazol-5-yl)-2-{3-[(3S)-3-(propan-2-yl)piperazin-1-yl]-1,2,4-triazin-6-yl}pyridin-3-ol]	8.11	–
Cc1ccc2c(cnn2-c2ccc(-c3cnc(N4CCN[C@@H](C(C)C)C4)nn3)c(O)c2)n1 [Cpd 155, 5-(5-methyl-1H-pyrazolo[4,3-b]pyridin-1-yl)-2-{3-[(3S)-3-(propan-2-yl)piperazin-1-yl]-1,2,4-triazin-6-yl}phenol]	7.71	–
CC(C)(C)[C@H]1CN(c2ncc(-c3ccc(-c4cn[nH]c4)cc3O)nn2)CCN1 [Cpd 16, 2-{3-[(3S)-3-tert-butylpiperazin-1-yl]-1,2,4-triazin-6-yl}-5-(1H-pyrazol-4-yl)phenol]	7.88	–
CC(C)[C@H]1CN(c2ncc(-c3ccc(-c4ccc5nncn5c4)cc3O)nn2)CCN1 [Cpd 115, 2-{3-[(3S)-3-(propan-2-yl)piperazin-1-yl]-1,2,4-triazin-6-yl}-5-([1,2,4]triazolo[4,3-a]pyridin-6-yl)phenol]	6.75	–
COc1csc(-c2ccc(-c3cnc(N4CCN[C@@H](C(C)C)C4)nn3)c(O)c2)n1 [Cpd 200, 5-(4-methoxy-1,3-thiazol-2-yl)-2-{3-[(3S)-3-(propan-2-yl)piperazin-1-yl]-1,2,4-triazin-6-yl}phenol]	7.52	–
CC[C@H]1CN(c2ncc(-c3ccc(-n4nccn4)cc3O)nn2)CCN1 [Cpd 132, 2-{3-[(3S)-3-ethylpiperazin-1-yl]-1,2,4-triazin-6-yl}-5-(2H-1,2,3-triazol-2-yl)phenol]	7.41	–
CCC1CN(c2ncc(-c3ccc(-c4cn[nH]c4)cc3O)nn2)CCN1 (centres unmarked) [Cpd 24, 2-[3-(3-ethylpiperazin-1-yl)-1,2,4-triazin-6-yl]-5-(1H-pyrazol-4-yl)phenol]	7.63	–
Cc1cn2cc(-c3ccc(-c4cnc(N5CCN[C@@H](C(C)C)C5)nn4)c(O)c3)ncc2n1 [Cpd 141, 5-(2-methylimidazo[1,2-a]pyrazin-6-yl)-2-{3-[(3S)-3-(propan-2-yl)piperazin-1-yl]-1,2,4-triazin-6-yl}phenol]	8.64	–
CC(C)[C@H]1CN(c2ncc(-c3ccc(-c4nc(C(F)F)cs4)cc3O)nn2)CCN1 [Cpd 186, 5-[4-(difluoromethyl)-1,3-thiazol-2-yl]-2-{3-[(3S)-3-(propan-2-yl)piperazin-1-yl]-1,2,4-triazin-6-yl}phenol]	7.11	–
CC1([C@@H]2CN(c3ncc(-c4ccc(-c5cnn6c5CCC6)cc4O)nn3)CCN2)CC1 [Cpd 281, 5-(5,6-dihydro-4H-pyrrolo[1,2-b]pyrazol-3-yl)-2-{3-[(3R)-3-(1-methylcyclopropyl)piperazin-1-yl]-1,2,4-triazin-6-yl}phenol]	6.70	–
C[C@@H]1CN(c2ncc(-c3ccc(-c4cc(F)c5nn(C)cc5c4)cc3O)nn2)C[C@H](C)N1 [Cpd 79, 2-{3-[(3R,5S)-3,5-dimethylpiperazin-1-yl]-1,2,4-triazin-6-yl}-5-(7-fluoro-2-methyl-2H-indazol-5-yl)phenol]	8.28	–
CC(C)[C@H]1CN(c2ncc(-c3ccc(-c4ccncc4)cc3O)nn2)CCN1 [Cpd 161, 2-{3-[(3S)-3-(propan-2-yl)piperazin-1-yl]-1,2,4-triazin-6-yl}-5-(pyridin-4-yl)phenol]	7.22	–
[2H]C([2H])([2H])n1cc(-c2cc(O)c(-c3cnc(N4CCN[C@@H](C(C)(C)C)C4)nn3)cc2F)cn1 [Cpd 156, 2-{3-[(3S)-3-tert-butylpiperazin-1-yl]-1,2,4-triazin-6-yl}-4-fluoro-5-[1-(^2H3)methyl-1H-pyrazol-4-yl]phenol]	7.90	–
C[C@@H]1CN(c2ncc(-c3ccc(-c4c[nH]nc4F)cc3O)nn2)C[C@H](C2CCC2)N1 [Cpd 236, 2-{3-[(3S,5R)-3-cyclobutyl-5-methylpiperazin-1-yl]-1,2,4-triazin-6-yl}-5-(3-fluoro-1H-pyrazol-4-yl)phenol]	8.02	–
CC1CN(c2ncc(-c3ccc(-c4cn[nH]c4)cc3O)nn2)CC(C)N1 (centres unmarked) [WO/2019/191229 A1 Cpd 262, reference compound]	–	pIC50 (Table 3, selected compounds from WO/2019/191229 A1, same MSD assay): 7.14
Oc1cc(-c2cn[nH]c2)ccc1-c1cnc(N2CCN3CCOCC3C2)nn1 (stereo not drawn) [Cpd 64, 2-[3-(hexahydropyrazino[2,l-c][1,4]oxazin-8(1H)-yl)-1,2,4-triazin-6-yl]-5-(1H-pyrazol-4-yl)phenol]	–	IC50 (nM) [1]: inactive

Structure (SMILES)	pIC50 [1]	also measured
CC(C)C1CN(c2ncc(-c3ccc(-c4c[nH]nc4F)cc3O)nn2)CCN1 (centres unmarked) [Cpd 15, 5-(3-fluoro-1H-pyrazol-4-yl)-2-{3-[3-(propan-2-yl)piperazin-1-yl]-1,2,4-triazin-6-yl]phenol]	7.89	–
Oc1cc(-c2ncsn2)ccc1-c1cnc(N2CCN[C@@H](C3CC3)C2)nn1 [Cpd 213, 2-{3-[(3S)-3-cyclopropylpiperazin-1-yl]-1,2,4-triazin-6-yl]-5-(1,2,4-thiadiazol-3-yl)phenol]	8.11	–
OC[C@@H]1CN(c2ncc(-c3ccc(-n4nccn4)cc3O)nn2)CCN1 [Cpd 45, 2-{3-[(3S)-3-(hydroxymethyl)piperazin-1-yl]-1,2,4-triazin-6-yl}-5-(2H-1,2,3-triazol-2-yl)phenol]	6.85	–
COC1(C2CN(c3ncc(-c4ccc(-c5cn[nH]c5)cc4O)nn3)CCN2)CC1 (centres unmarked) [Cpd 29, 2-{3-[3-(1-methoxycyclopropyl)piperazin-1-yl]-1,2,4-triazin-6-yl}-5-(1H-pyrazol-4-yl)phenol]	7.55	–
CC(C)[C@H]1CN(c2ncc(-c3ccc(-c4ncn(C)n4)cc3O)nn2)CCN1 [Cpd 259, 5-(1-methyl-1H-1,2,4-triazol-3-yl)-2-{3-[(3S)-3-(propan-2-yl)piperazin-1-yl]-1,2,4-triazin-6-yl}phenol]	6.47	–
[2H]C([2H])([2H])n1cc(-c2ccc(-c3cnc(N4CCNC(C(C)C)C4)nn3)c(O)c2)cn1 (centres unmarked) [Cpd 41, 5-[1-(^2H3)methyl-1H-pyrazol-4-yl]-2-{3-[3-(propan-2-yl)piperazin-1-yl]-1,2,4-triazin-6-yl}phenol]	6.96	–
Cc1cn2cc(-c3ccc(-c4cnc(N5CCN[C@@H](C(C)C)C5)nn4)c(O)c3)cc(C(F)(F)F)c2n1 [Cpd 139, 5-[2-methyl-8-(trilluoromethyl)imidazo[1,2-a]pyridin-6-yl]-2-{3-[(3S)-3-(propan-2-yl)piperazin-1-yl]-1,2,4-triazin-6-yl}phenol]	7.74	–
Oc1cc(-c2c[nH]nc2Cl)ccc1-c1cnc(N2CCN[C@@H](C3CC3)C2)nn1 [Cpd 163, 5-(3-chloro-1H-pyrazol-4-yl)-2-{3-[(3S)-3-cyclopropylpiperazin-1-yl]-1,2,4-triazin-6-yl}phenol]	8.38	–
Cc1cn2cc(-c3cnc(-c4cnc(N5CCN(C)CC5)nn4)c(O)c3)cc(C)c2n1 [Cpd 126, 5-(2,8-dimethylimidazo[1,2-a]pyridin-6-yl)-2-[3-(4-methylpiperazin-1-yl)-1,2,4-triazin-6-yl]pyridin-3-ol]	7.00	–
CC1CN(c2ncc(-c3ccc(-c4cn[nH]c4)cc3O)nn2)CCN1 (centres unmarked) [Cpd 42, 2-[3-(3-methylpiperazin-1-yl)-1,2,4-triazin-6-yl]-5-(1H-pyrazol-4-yl)phenol]	6.96	–
Cc1ncn2cc(-c3ccc(-c4cnc(N5CCN[C@@H](C6CC6)C5)nn4)c(O)c3)ccc12 [Cpd 194, 2-{3-[(3S)-3-cyclopropylpiperazin-1-yl]-1,2,4-triazin-6-yl}-5-(1-methylimidazo[1,5-a]pyridin-6-yl)phenol]	7.71	–
Cc1nnn2cc(-c3ccc(-c4cnc(N5CCN[C@@H](C6CC6)C5)nn4)c(O)c3)ccc12 [Cpd 193, 2-{3-[(3S)-3-cyclopropylpiperazin-1-yl]-1,2,4-triazin-6-yl}-5-(3-methyl[1,2,3]triazolo[1,5-a]pyridin-6-yl)phenol]	8.32	–
CC(C)(O)C1CN(c2ncc(-c3ccc(-c4cn[nH]c4)cc3O)nn2)CCN1 (centres unmarked) [Cpd 13, 2-{3-[3-(2-hydroxypropan-2-yl)piperazin-1-yl]-1,2,4-triazin-6-yl}-5-(1H-pyrazol-4-yl)phenol]	7.94	–
CC(C)[C@H]1CN(c2ncc(-c3ccc(-c4ccc5nccn5c4)cc3O)nn2)CCN1 [Cpd 114, 5-(imidazo[1,2-a]pyridin-6-yl)-2-{3-[(3S)-3-(propan-2-yl)piperazin-1-yl]-1,2,4-triazin-6-yl}phenol]	7.26	–
C[C@H]1CN(c2ncc(-c3ccc(-c4cn[nH]c4)cc3O)nn2)CCN1 [Cpd 165, 2-{3-[(3S)-3-methylpiperazin-1-yl]-1,2,4-triazin-6-yl}-5-(1H-pyrazol-4-yl)phenol]	6.91	–
Cc1nc2ccc(-c3ccc(-c4cnc(N5C[C@@H](C)N[C@@H](C)C5)nn4)c(O)c3)nn2n1 [Cpd 100, 2-{3-[(3R,5S)-3,5-dimethylpiperazin-1-yl]-1,2,4-triazin-6-yl}-5-(2-methyl[1,2,4]triazolo[1,5-b]pyridazin-6-yl)phenol]	7.96	–
